According to PubChem BioAssay (NCI):
Values joined by “and” are separate entries in the source; they are usually repeats but may differ in a detail not shown here. Equal values may be shown once.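 Grown in 96-well plates, cells were treated for 48 hours with each compound at five concentrations. Insufficient inhibition: endpoint recorded as highest concentration tested. GI50 = concentration required for 50% inhibition of growth. Definition used: TGI = concentration required for complete inhibition of growth.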

What was measured:
Assay in all cases: NCI tumour cell line growth inhibition, 48 h
[1] = system: NCI-H522 lung
[2] = system: OVCAR-5 ovarian
[3] = system: OVCAR-3 ovarian
[4] = system: PC-3 prostate
[5] = system: A498 renal
[6] = system: CAKI-1 renal
[7] = system: KM12 colon
[8] = system: SK-MEL-28 melanoma
[9] = system: NCI-H23 lung
[10] = system: HT29 colon

Row | SMILES | TGI [1] | TGI [2] | TGI [3] | TGI [4] [µM] | TGI [5] | TGI [6] | TGI [7] [µM] | TGI [8] | TGI [9] | TGI [10] | GI50 [1] [µM] | GI50 [3] [µM] | GI50 [4] [µM] | GI50 [5] [µM] | GI50 [6] [µM] | GI50 [7] [µM] | GI50 [8] [µM] | GI50 [9] [µM] | GI50 [2] [µM] | GI50 [10] [µM]
1 | O=C(O)C(Cc1cccs1)C(=O)O | > 100 µM | > 100 µM | > 100 µM | > 100 | > 100 µM | > 100 µM | > 100 | > 100 µM | > 100 µM | > 100 µM |  |  |  |  |  |  |  |  |  | 
2 | CN(C)Cc1cc(C(=O)O)cc(CN(C)C)c1O | > 100 µM | > 100 µM | > 100 µM | > 100 | > 100 µM | > 100 µM | > 100 | > 100 µM | > 100 µM | > 100 µM |  |  |  |  |  |  |  |  |  | 
3 | CC(NCCS(=O)(=O)O)C(=O)O (stereo unspecified) | > 100 µM | > 100 µM | > 69.4 µM |  | > 100 µM | > 100 µM | > 100 | > 100 µM | > 100 µM | > 100 µM |  |  |  |  |  |  |  |  |  | 
4 | COc1ccc(-c2cn3ccnc3c(-c3ccc4ncn(C5CCCCC5)c4c3)n2)cc1 | 6.15 µM |  | > 100 µM | > 100 | > 100 µM | > 100 µM | > 100 | > 100 µM | > 100 µM |  | 0.424 | 0.411 | 0.621 | 0.742 | 0.757 | 1.35 | 2.1 | 2.11 |  | 
5 | CCCCCCCCCC[C@@H](O)[C@@H]1CC[C@@H]([C@@H]2CC[C@@H]([C@@H](O)CCCCCCCCCCC(O)CC3=CC(C)OC3=O)O2)O1 (stereo partly specified) | > 10 µM | > 10 µM |  | > 10 | > 10 µM |  | > 10 | > 10 µM |  | > 10 µM |  |  |  |  |  |  |  |  |  | 
6 | Cc1c2cc[n+](C)cc2c(C)c2c1[nH]c1ccccc12 | 3.6 µM and 3.45 µM | 56.6 µM and 61.1 µM | 19.7 µM and 21.3 µM | > 100 | 68.7 µM and 53.5 µM | 58.8 µM and 27.7 µM | 12.1 | 4.83 µM and 7.1 µM | 4.8 µM and 6.39 µM | 62.7 µM and 71.6 µM |  |  |  |  |  |  |  |  |  | 
7 | C=C[C@H]1CN2CC[C@H]1C[C@@H]2[C@@H](O)c1ccnc2ccccc12 | > 100 µM | > 100 µM | > 100 µM | > 100 | > 100 µM | > 100 µM | > 100 | > 100 µM | > 100 µM | > 100 µM |  |  |  |  |  |  |  |  |  | 
8 | NCCCCCCNc1cc(-c2cccc(OC(F)(F)F)c2)nc2ccc(N3CCCC3)cc12 | 3.1 µM | 3.28 µM | 3.14 µM |  | 2.81 µM | 3.1 µM | 3.38 |  |  | 3.06 µM | 1.66 | 1.68 |  | 1.46 | 1.72 | 1.79 |  |  | 1.83 | 1.62
